Test results published in patent US10782295B2, “Cysteine-reactive ligand discovery in proteomes” (THE SCRIPPS RESEARCH INSTITUTE, priority 2013, dated 2020).

Key:
Experiment in all cases: competitive isoTOP-ABPP, MDA-MB-231 soluble proteome
Format in all cases: binding
CHRAC1 = biological target: T1, CHRAC1 (Homo sapiens, UniProt Q9NRG0); settings: 100 μM LDE, 60 min; peptide ATELFVQC*LATYSYR
T1 construct: directly in native proteomes; endogenous in cells; host or cells: MDA-MB-231
T1 sequence (Q9NRG0 1-131): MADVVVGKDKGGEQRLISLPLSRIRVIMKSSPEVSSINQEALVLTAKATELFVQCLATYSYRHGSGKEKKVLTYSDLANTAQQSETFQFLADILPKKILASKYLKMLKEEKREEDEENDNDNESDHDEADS

REEP5 = biological target: T2, REEP5 (Homo sapiens, UniProt Q00765); settings: 100 μM LDE, 60 min; peptide NC*MTDLLAK
T2 construct: directly in native proteomes; endogenous in cells; host or cells: MDA-MB-231
T2 sequence (Q00765 whole entry): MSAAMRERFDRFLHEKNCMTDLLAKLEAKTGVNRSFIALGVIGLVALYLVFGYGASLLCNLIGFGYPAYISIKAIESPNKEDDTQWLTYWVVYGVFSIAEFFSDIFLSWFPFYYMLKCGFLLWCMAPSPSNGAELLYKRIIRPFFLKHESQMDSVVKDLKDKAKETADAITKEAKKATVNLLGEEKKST

DYNC1L11 = biological target: T3, DYNC1L11 (Homo sapiens, UniProt Q9Y6G9); settings: 100 μM LDE, 60 min; peptide SEQ ID NO: 25 (...NLWSC*ILSEVSTR)
T3 construct: directly in native proteomes; endogenous in cells; host or cells: MDA-MB-231
T3 sequence (Q9Y6G9 whole entry): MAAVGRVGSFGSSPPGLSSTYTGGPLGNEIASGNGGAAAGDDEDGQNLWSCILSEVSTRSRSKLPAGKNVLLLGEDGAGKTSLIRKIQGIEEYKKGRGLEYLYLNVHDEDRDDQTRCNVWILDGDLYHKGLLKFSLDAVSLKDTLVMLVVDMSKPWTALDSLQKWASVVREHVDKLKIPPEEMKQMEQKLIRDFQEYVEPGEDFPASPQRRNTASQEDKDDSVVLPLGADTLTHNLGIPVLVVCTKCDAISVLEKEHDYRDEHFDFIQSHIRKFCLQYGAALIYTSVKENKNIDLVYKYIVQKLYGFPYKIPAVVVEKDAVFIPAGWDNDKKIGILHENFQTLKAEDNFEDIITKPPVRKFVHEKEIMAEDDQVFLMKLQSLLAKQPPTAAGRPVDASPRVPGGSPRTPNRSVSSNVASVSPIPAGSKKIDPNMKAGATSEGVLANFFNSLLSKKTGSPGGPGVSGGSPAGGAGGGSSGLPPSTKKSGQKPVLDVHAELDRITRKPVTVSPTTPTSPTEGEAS

HPCA = biological target: T4, HPCA (Homo sapiens, UniProt P84074); settings: 100 μM LDE, 60 min; peptide LLQC*DPSSASQF
T4 construct: directly in native proteomes; endogenous in cells; host or cells: MDA-MB-231

PEF1 = biological target: T5, PEF1 (Homo sapiens, UniProt Q9UBV8); settings: 100 μM LDE, 60 min; peptide QALVNC*NWSSFNDETCLMMINMFDK
T5 construct: directly in native proteomes; endogenous in cells; host or cells: MDA-MB-231
T5 sequence (Q9UBV8 1-284): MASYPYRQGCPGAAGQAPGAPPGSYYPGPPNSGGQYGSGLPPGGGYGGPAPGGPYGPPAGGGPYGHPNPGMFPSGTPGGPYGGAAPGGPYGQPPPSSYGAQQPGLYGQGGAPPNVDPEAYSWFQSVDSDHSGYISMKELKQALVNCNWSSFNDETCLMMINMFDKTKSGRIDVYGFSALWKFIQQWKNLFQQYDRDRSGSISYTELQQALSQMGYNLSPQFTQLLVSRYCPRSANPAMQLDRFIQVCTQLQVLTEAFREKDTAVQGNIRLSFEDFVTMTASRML

IDH1 = biological target: T6, IDH1 (Homo sapiens, UniProt O75874); settings: 100 μM LDE, 60 min; peptide SEGGFIWAC*K
T6 construct: directly in native proteomes; endogenous in cells; host or cells: MDA-MB-231
T6 sequence (O75874 whole entry): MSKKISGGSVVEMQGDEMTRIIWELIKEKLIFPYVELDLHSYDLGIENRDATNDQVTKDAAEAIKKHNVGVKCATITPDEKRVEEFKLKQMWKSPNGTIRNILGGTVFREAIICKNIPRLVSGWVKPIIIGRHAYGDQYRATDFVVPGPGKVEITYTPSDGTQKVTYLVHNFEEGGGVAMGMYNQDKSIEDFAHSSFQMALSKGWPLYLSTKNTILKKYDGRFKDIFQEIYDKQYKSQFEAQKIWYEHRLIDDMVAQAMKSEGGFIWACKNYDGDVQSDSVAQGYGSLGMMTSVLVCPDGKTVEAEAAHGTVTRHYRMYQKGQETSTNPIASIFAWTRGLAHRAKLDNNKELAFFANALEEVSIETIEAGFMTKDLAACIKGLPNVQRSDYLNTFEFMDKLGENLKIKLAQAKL

PEC1 = biological target: T7, PEC1 (Homo sapiens, UniProt O75521); settings: 100 μM LDE, 60 min; peptide WLSDEC*TNAVVNFLSR
T7 construct: directly in native proteomes; endogenous in cells; host or cells: MDA-MB-231
T7 sequence (O75521 39-394): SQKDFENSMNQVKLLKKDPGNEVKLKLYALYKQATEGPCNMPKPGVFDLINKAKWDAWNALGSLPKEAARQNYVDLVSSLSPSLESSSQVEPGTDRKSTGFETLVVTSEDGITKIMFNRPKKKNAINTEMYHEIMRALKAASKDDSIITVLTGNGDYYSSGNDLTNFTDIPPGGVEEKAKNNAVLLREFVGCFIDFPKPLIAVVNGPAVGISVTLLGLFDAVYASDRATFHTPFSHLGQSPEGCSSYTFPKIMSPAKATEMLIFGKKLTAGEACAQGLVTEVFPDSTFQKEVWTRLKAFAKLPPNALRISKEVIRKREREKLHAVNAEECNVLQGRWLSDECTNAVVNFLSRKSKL

Compound | R value (isoTOP-ABPP ratio heavy/light) for IA-labeled cysteine of CHRAC1 (CHRAC1) | R value (isoTOP-ABPP ratio heavy/light) for IA-labeled cysteine of REEP5 (REEP5) | R value (isoTOP-ABPP ratio heavy/light) for IA-labeled cysteine of DYNC1L11 (DYNC1L11) | R value (isoTOP-ABPP ratio heavy/light) for IA-labeled cysteine of HPCA (HPCA) | R value (isoTOP-ABPP ratio heavy/light) for IA-labeled cysteine of PEF1 (PEF1) | R value (isoTOP-ABPP ratio heavy/light) for IA-labeled cysteine of IDH1 (IDH1) | R value (isoTOP-ABPP ratio heavy/light) for IA-labeled cysteine of PEC1 (PEC1)
CCCCCCCCCCCCC/C=C/C=O [2-HD, 2-trans-hexadecenal] | 1.06 | 1.18 | 1.1 | 1.13 | 1.25 | 1.13 | 1.06
CCCCCC(O)/C=C/C=O (stereo not drawn) [4-HNE, 4-Hydroxynonenal] | 1.94 | 7.08 | 2.59 | 2.17 | 5.14 | 1.3 | 1.86
CCCCC/C=C/C=C1/C(=O)C=C[C@@H]1C/C=C\CCCC(=O)O [PGJ2, 15-deoxy-Δ12,14-prostaglandin J2] | 12.32 | 7.38 | 5.18 | 7.21 | 2.9 | 6.66 | 8.23
